{
  "source": "paper PMC11462627",
  "about": "“SAL0114: a novel deuterated dextromethorphan-bupropion combination with improved antidepressant efficacy and safety profile” (Frontiers in Pharmacology, 2024)",
  "key": {"[1]": {"test": "Pharmacokinetic study in C57BL/6 mice", "format": "in vivo", "details": "plasma DM or deDM, C57BL/6 mice, oral, 20 mg/kg, mean ± SD", "source_text": "The assay was built in a way similar to that previously published by [Beconi et al. (2011)] with some modifications. A total of 36 male C57BL/6 mice, weighing between 20 and 22 g, were randomly divided into four groups of nine mice each. […] Mice in each group were numbered 1–9. Following the oral administration of the compounds in each group, blood was collected from the jugular vein at the specified time points, with three mice at each time point and two to three times for each mouse. 1–3 numbered mice had blood collection time points of 0.25, 1.5, and 7 h after the administration of the compounds, 4–6 numbered mice had blood collection time points of 0.5, 2, and 24 h after the administration of the compounds, and 7–9 numbered mice had blood collection time points of 1 and 5 h after the administration of the compounds. All blood samples were collected without anesthesia, and blood was collected in heparinized EP tubes. Plasma was obtained by centrifuging the blood at 10,000 rpm for 2 min at 4°C."}, "[2]": {"test": "Metabolic stability in liver microsomes", "format": "in vitro ADME, human", "method": "All incubations were performed in duplicates. Verapamil was used as the positive control. After pre-warming the mixture for 5 min, reactions were initiated by the addition of NADPH (1 mM). Samples (30 μL) were taken at 0, 20, and 60 min, and the reaction was immediately terminated by adding 150 μL acetonitrile containing an analytical internal standard (IS). Samples were centrifuged at 4,000 rpm for 5 min in a centrifuge (5810R, Eppendorf, Germany), and the supernatant was analyzed by LC-MS/MS (Thermo Scientific TSQ Quantum Ultra, United States).\nThe in vivo clearance values (CLint = CLint, in vitro × (mg protein/g liver weight) × (g liver weight/kg body weight)) of humans were predicted by CLint, in vitro values using physiologically-based scaling factors, hepatic microsomal protein concentrations (48.8 mg protein/g liver), and liver weights (25.7 g/kg body weight). The in vivo hepatic clearance (CLH= (Q × CLint)/(Q + CLint)) was then calculated by using CLint and hepatic blood flow, Q (20.7 mL·min^−1·kg^−1 in humans)."}, "ICR mice [3]": {"system": "ICR mice", "test": "Forced swim test", "format": "in vivo", "details": "FST, oral, 1 h after administration, deDM 10 and 18 mg/kg, BUP 50 mg/kg, deDM + BUP 10 + 50 and 18 + 50 mg/kg", "method": "The mouse forced swim test was performed in a way similar to that published previously by Nguyen et al. ([Nguyen et al., 2017]) with some modifications. […] All compounds were administered orally via gavage at a volume of 10 mL/kg body weight, with the vehicle group receiving an equivalent volume of saline. 1 h after administration, mice underwent the forced swim test (FST), a widely used behavioral assay for evaluating antidepressant-like effects. Each mouse was individually placed in a transparent cylindrical tank filled with water (depth: 18 cm, temperature: 25°C ± 1°C) for a 6-min test session. The initial 2 min served as the acclimatization period and was not scored. Floating time during the subsequent 4 min was measured using ANY-Maze Version 4.63 video tracking software (Stoelting Co., Illinois, United States). Floating was defined as the minimum movement required to keep the animal’s head above water. Floating time (%) = floatting time(s)/240 s. The ANY-Maze software parameters were set as follows: acclimatization period = 120 s, test duration = 240 s, minimum immobility time = 2 s, and immobility sensitivity = 75%. To maintain consistent conditions, water was changed between the animals. […]"}, "NMDA receptor": {"biological_target": "NMDA receptor", "details": "read-out: Ki, NMDA receptor; 3H-MK801 competition, rat brain membranes, mean, n = 4", "method": "Membrane preparation was performed as previously described ([Werling et al., 2007]). Briefly, the brains of male Sprague-Dawley rats were dissected for tissue collection. The tissue was then homogenized in ice-cold extraction solution and centrifuged at 40,000 × g for 10 min (minute). The supernatant was discarded, the precipitate was resuspended in extraction solution, and the above steps were repeated two times. Finally, the precipitate was resuspended in a 10-fold volume of resuspension solution and stored at −80°C. Protein concentration was determined using a PierceTM BCA Protein Assay Kit. The competitive binding of the compound and ^3H-MK801 to the NMDA receptor was evaluated utilizing the filtration binding method. This method involves washing unbound radioligands and subsequently quantifying the signal values of the radioligands bound to the NMDA receptor using a Microbeta instrument (catalog number: 2450, Perkin Elmer, Massachusetts, United States)."}, "ICR mice [4]": {"system": "ICR mice", "test": "Tail suspension test", "format": "in vivo", "details": "TST, oral, 1 h after administration, deDM 10 and 18 mg/kg, BUP 50 mg/kg, deDM + BUP 10 + 50 and 18 + 50 mg/kg", "method": "The TST was adapted from the behavioral despair test described by Nguyen et al. ([Nguyen et al., 2017]), with some modifications. […] All compounds were administered orally via gavage at a volume of 10 mL/kg body weight, with the vehicle group receiving an equivalent volume of saline. One hour after administration, mice underwent a tail suspension test (TST). For the TST, each mouse was suspended by its tail, with adhesive tape attached 2 cm from the tail tip and secured to a metal rod. Care was taken to ensure a minimum distance of 15 cm between the suspended animal and the surrounding objects. The test was performed using the ANY-maze version 4.63 video tracking program (Stoelting Co., Wood Dale, IL, United States) for a total duration of 6 min. The initial 2 min served as an acclimatization period and were not scored. The immobility time during the subsequent 4 min was measured using the same software. Immobility was defined as mouse hanging passively and motionless. The ANY-Maze software parameters were set as follows: acclimatization period = 120 s, test duration = 240 s, minimum immobility time = 2 s, and immobility sensitivity = 75%. […]"}},
  "data": [
    {"substance": "deuterated dextromethorphan [deDM]", "values": [
      {"measurement": "AUC0-last", "setting": "[1]", "result": "387 ± 163", "unit": "ng·h/mL"},
      {"measurement": "Cmax", "setting": "[1]", "result": "269 ± 83", "unit": "ng/mL"},
      {"measurement": "T1/2", "setting": "[2]; 1 μM, 0.5 mg/mL human liver microsomes, NADPH 1 mM, 37°C, mean, n = 2", "result": 2.265, "unit": "h"},
      {"measurement": "CLint, in vitro", "setting": "[2]; human liver microsomes, calculated from t1/2, mean, n = 2", "result": 12.8, "unit": "mL/min/kg"},
      {"measurement": "CLH", "setting": "[2]; in vivo hepatic clearance predicted from CLint and hepatic blood flow 20.7 mL/min/kg, human", "result": 7.9, "unit": "mL/min/kg"},
      {"measurement": "floating time compared to the vehicle group", "setting": "ICR mice [3]", "result": "did not significantly reduce the floating time"},
      {"measurement": "Ki", "setting": "NMDA receptor", "result": 1900, "unit": "nM"},
      {"measurement": "immobilization time compared to the vehicle group", "setting": "ICR mice [4]", "result": "did not significantly reduce the immobilization time"}
    ]}
  ]
}
